Measurements: patent publication US20090264492A1, “PHARMACEUTICAL COMPOSITION FOR THE TREATMENT OF A FUNGAL SKIN DISORDER AND A METHOD FOR THE PREPARATION THEREOF” (Stichting Voor de Technische Wetenschappen, priority 2006, published 2009)

Legend:
T. rubrum = test: PDT of T. rubrum on human stratum corneum (ex-vivo model), fungicidal effect; assay type: cell-based, Trichophyton rubrum; details: acidic pH versus pH 7.4
Method: A polycarbonate membrane filter, 25 mm in diameter and a pore size of 2 μm (Whatman, Breda, The Netherlands) was placed in the central part of a 3 cm culture dish (Greiner, Alphen aan den Rijn, The Netherlands) filled with 5 ml of Malt Extract Agar (MEA). A circular piece of human stratum corneum (SC) with a diameter of 1 cm was subsequently placed on the membrane filter and both were gently brushed with a paintbrush dipped in 70% ethanol. A microconidia suspension isolated from Trichphyton rubrum (CBS nr. 304.60 obtained from Centraal Bureau voor Schimmelcultures, Utrecht, The Netherlands, and prepared as described by Smijs G. M. T. et al (2004) in “Photodynamic treatment of the dermatophyte Trichophyton Rubrum and its microconidia with porphyrin sensitizers. PhotoChemistry and PhotoBiology, 80, 197 - 202”) was diluted to 1000 CFU/ml and 15 μl was inoculated on the circular sheet of human SC. The dish was placed in an incubator at 28° C. and at 17 hours after spore inoculation photodynamic treatment (PDT) was applied.
At 17 hours after spore inoculation, the membrane filter with SC containing spore inoculates was transported from the MEA dish to a 3 cm culture dish filled with 1035 μl incubation medium. The incubation medium contained 1 ml of distilled water with an adjusted pH (3.5, 4.5, 5.2, or 7.4) and 35 μl of a Sylsens B stock solution (Buchem, Apeldoorn, the Nederland) . To optimize the contact of the inoculates with the incubation medium, the membrane filter with the SC was turned upside down during the incubation period of 2 hours. The incubation was performed under continuous shaking conditions. Shortly before the illumination period the membrane filter containing the SC was turned back (surface SC now faces the lamp). In all cases, the illumination time was 1 hour using a red light irradiance of 30 mW/cm^2. This corresponds to a light dose of 108 J/cm^2. After the illumination the membrane filter with the SC were transported to a fresh MEA dish, placed in a 28° C. incubator and fungal growth was followed for several weeks. Dark controls were included, i.e. the same procedure was carried out except that the inoculated microconidia on human skin were treated with solvent and/or photosensitizer in the dark. In the light controls, the microconidia were treated with solvent (only) in the presence of light. The efficacy of the treatment was expressed as a relative frequency of complete inactivation (killing) of fungal growth detected at day 8 after spore inoculation. This was assessed microscopically with the use of a Zeiss Axiovert 25 (Germany). […] The treatment effect was followed for a period of several months. Every experiment contained 4 to 6 duplicates of all conditions and the experiments were repeated 3 times at least.
PDT of T. rubrum 17 hours after spore inoculation using the ex-vivo model, different concentrations of Sylsens B and a different pH (water medium). The numbers indicate the relative frequency of the fungicidal effect^1. Numbers between brackets give the number of tests performed.
The experiment with Sylsens B was repeated more extensively, for a longer period of time and with more samples. More specifically, the photodynamic efficacy of Sylsens B towards T. rubrum was tested at 17 (FIG. 2a), 48 (FIG. 2b) and 72 hours (FIG. 2c) after spore inoculation on human SC, at the following incubation pH values: Filled diamonds: pH 3.5, filled squares: pH 5.2 and filled triangles: pH 7.4.

[1] = system: the fungus cultivated in suspension; test: binding of Sylsens B to the fungus cultivated in suspension / photodynamic effect with competing cations; assay type: cell-based, T. rubrum; details: Alcian Blue 160 μM versus Sylsens B 160 μM
Method: In the above experiments, deuteroporphyrin monomethylether (DP mme), an anionic porphyrin, was used as a control. […] The effect of calcium-ions was investigated by determining the photodynamic effect in the presence of 5 mM CaCl2 at pH 5.2. […] So, PDT may even be used to inactivate (kill) the growing fungus if measures are taken to prevent naturally present calcium from interfering with the treatment, in particular by using a chelating compound such as EDTA.

| Molecule | effect of acidic pH on photodynamic activity (T. rubrum) | competition for binding to the fungus [1] |
| --- | --- | --- |
| deuteroporphyrin monomethylether [DP mme, reference compound] | failed to display the observed pH effect | – |
| C[n+]1ccc(-c2c3nc(c(-c4cc[n+](C)cc4)c4ccc([nH]4)c(-c4cc[n+](C)cc4)c4nc(c(-c5cc[n+](C)cc5)c5ccc2[nH]5)C=C4)C=C3)cc1.[Cl-].[Cl-].[Cl-].[Cl-] [meso-tetra(N-methyl-4-pyridyl)porphyrin tetrachloride, reference compound] | improved activity at acidic pH, albeit to a lesser extent than Sylsens B | – |
| Alcian Blue [reference compound] | – | competed with Sylsens B |
